These results are taken from US20180021373A1, “Ruthenium and Indium Binding to Gastrins” (EUPHARMA PTY LTD, priority 2015, published 2018).

Read-outs that look alike come from different tables or passages of the source.

For test [1], the target named is T1, progastrin (Homo sapiens, UniProt P01350).
T1 sequence (P01350 27-101 limits assumed): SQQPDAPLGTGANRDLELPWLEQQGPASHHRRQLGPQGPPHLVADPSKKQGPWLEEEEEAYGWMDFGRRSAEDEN
The note with it: competition with ^59Fe^3+ ions (Baldwin 2004); cited from earlier work.

In test [2] the target is T2, Ggly (Homo sapiens, UniProt P01350). The note with it: 20 equivalents; WO 2004/089976; cited from earlier work.
For test [3], the target named is T2, Ggly. To be noted: Ggly binds two Bi^3+ ions at pH 4; read-out: affinity; cited from earlier work.
Test [4] has as its target T2, Ggly. To be noted: cited from earlier work; for quenching of Ggly fluorescence: WO 2004/089976; for binding to Ggly: detected by measurement of Ggly fluorescence (Baldwin 2001).
The target in test [5] is T3, Gamide (Homo sapiens, UniProt P01350).
T3 construct: amidated gastrin34 and amidated gastrin17 (Gamide); purchased Auspep (Clayton, Australia)
Nature of the test: Absorption spectroscopy (280 nm) of metal ion binding to Gamide, fitted with BioEqs. To be noted: for A280 (%) for first site / A280 (%) for second site / A280 (%) for mixed FeGastrinM complex: percentage absorbance at 280 nm, fitted.
Protocol: (§1) Gamide and Ggly (88 and 93% pure, respectively) were purchased from Auspep (Clayton, Australia). The impurities consisted of water and salts. Solutions of metal ions (Aldrich, St. Louis, Mo.) were prepared in 10 mM HCl, and their concentrations determined by inductively coupled plasma-atomic emission spectroscopy at the National Measurement Institute (Pymble, Australia).
(§2) The 280 nm absorption of peptides (10 μM in 10 mM sodium acetate, pH 4.0, containing 100 mM NaCl and 0.005% Tween 20) in the presence of increasing concentrations of metal ions was measured against a buffer blank, in 1 ml quartz cuvettes thermostatted at 298 K, with a Cary 5 spectrophotometer (Varian, Mulgrave, Australia).
(§3) Data (expressed as means±S.E.M.) were fitted to one-site or two-site ordered models (as per FIG. 1) with the program BioEqs.
(§4) New absorption data sets were obtained, and fitted with the program Bioeqs as described in the Materials and Methods section. […] In the 2 site competitive model gastrin binds two ferric ions with dissociation constants Kd1Fe and Kd2Fe, and two metal ions M to the same two sites with dissociation constants Kd1M and Kd2M. The dissociation constant Kd3M describes the formation of the mixed FeGastrinM complex.

For test [6], the target named is T2, Ggly. Nature of the test: Absorption spectroscopy (280 nm) of metal ion binding to Ggly, fitted with BioEqs. To be noted: for A280 (%) for first site / A280 (%) for second site / A280 (%) for mixed FeGastrinM complex: Ggly, percentage absorbance at 280 nm, fitted.
Protocol: as §1, §2, §3, §4
In test [7] the test system is gastrins. The test can be described thus: Screen of binding affinities of a range of metals to gastrins.
Test [8] has as its system colon. To be noted: infusion into gastrin-deficient mice (Wang 1996); cited from earlier work.
Setting [9] is: Gamide 10 μM, pH 4.0, 298 K, 2 site model (Fe, Ga) or 2 site competitive model vs Fe^3+ (In, Ru), read-out: Kd1 (first iron binding site).
Setting [10] is: Gamide 10 μM, pH 4.0, 298 K, 2 site or 2 site competitive model, read-out: Kd2 (second site).
Setting [11] is: read-out: Kd2 (second site), Ggly 10 μM, pH 4.0, 298 K, 2 site or 2 site competitive model.
The mark [12] stands for this setting: Gamide, 2 site competitive model, read-out: Kd3 (formation of mixed FeGastrinM complex).

Regarding `[Al+3]` [Al(III)], in test [1], the binding to progastrin entry is on record as “does not bind”. Besides, the “shift in Ggly NMR signals” value in test [2] is “nor did 20 equivalents of Al^3+ cause any significant shift in Ggly NMR signals”.

In the case of `[Bi+3]` [Bi^3+], the Kd in test [3] was 5800 nM.

With `[Ca+2]` [Ca(II)], the binding to progastrin result in test [1] is “does not bind”.

As to `[Co+2]` [Co(II)], the binding to progastrin entry in test [1] was “does not bind”. Also, in test [4], the “quenching of Ggly fluorescence” value was “not quench fluorescence” and the “binding to Ggly” value is on record as “does not bind”.

In the case of `[Cr+3]` [Cr(III)], the binding to progastrin result in test [1] is “does not bind”. Also, in test [4], the “quenching of Ggly fluorescence” value is listed as “not quench fluorescence” and the “binding to Ggly” value is on record as “does not bind”.

On to `[Cu+2]` [Cu(II)], for which, in test [1], the binding to progastrin result is recorded as “does not bind”. In test [4], the “quenching of Ggly fluorescence” value is reported as “not quench fluorescence” and the “binding to Ggly” value was “does not bind”.

As for `[Eu+3]` [Eu(III)], the binding to progastrin entry in test [1] is reported as “does not bind”.

In the case of `[Fe+2]` [Fe(II)], in test [1], the binding to progastrin result is “does not bind”.

On to `[Fe+3]` [Fe^3+], for which the Kd came to 0.3 nM in test [5] (setting [9]); 0.085 nM in test [5] (setting [10]); 5.7 nM in test [6] (Kd1 (first iron binding site), Ggly 10 μM, pH 4.0, 298 K, 2 site model (Fe, Ga) or 2 site competitive model vs Fe^3+ (In, Ru)); 7 nM in test [6] (Kd2 (second site), Ggly 10 μM, pH 4.0, 298 K, 2 site or 2 site competitive model). Besides, the “A280 (%) for first site” value in test [5] (Gamide) and in test [6] was 100.0% in each case. In addition, the results for the “A280 (%) for second site” value in test [5] (Gamide) and in test [6] were 313.4% and 365.9%, respectively.

For the molecule `[Ga+3]` [Ga^3+], the Kd in test [5] (setting [9]) amounted to 330 nM; in test [5] (setting [10]), 1100 nM; in test [5] (Gastrin/Gamide, 2 site model, read-out: dissociation constant (Kd), first site), 330 nM; in test [5] (Gastrin/Gamide, 2 site model, read-out: dissociation constant (Kd), second site) it was 1100 nM; in test [6], 17 nM; in test [6] (setting [11]), 2300 nM. Besides, the “A280 (%) for first site” value in test [5] (Gamide) and in test [6] was 100.0% throughout. The “A280 (%) for second site” value in test [5] (Gamide) worked out at 335.8%; in test [6] it was 340.2%.

Turning to `[In+3]` [In^3+], the Kd in test [5] (setting [10]) is 170 nM; in test [5] (setting [12]) it was 4 nM; in test [6], 96 nM; in test [6] (setting [11]), 14000 nM. Further, the “A280 (%) for first site” value in test [5] (Gamide) and in test [6] was 100.0% each time. Besides, the “A280 (%) for mixed FeGastrinM complex” value in test [5] (Gamide) was 217.7%; in test [6], 255.6%. The results for the “A280 (%) for second site” value in test [5] (Gamide) and in test [6] were 74.1% and 72.8%, respectively.

For `[Mn+2]` [Mn(II)], in test [1], the binding to progastrin entry is “does not bind”. Besides, in test [4], the “quenching of Ggly fluorescence” value is reported as “not quench fluorescence” and the “binding to Ggly” value was “does not bind”.

Consider `[Ru+3]` [Ru^3+], for which the Kd in test [5] (setting [10]) worked out at 12000 nM; in test [5] (setting [12]) it was 17 nM; in test [6], 1200 nM; in test [6] (setting [11]), 360000 nM. Besides, the “A280 (%) for first site” value in test [5] (Gamide) and in test [6] was 100.0% in each case. Moreover, the “A280 (%) for mixed FeGastrinM complex” value in test [5] (Gamide) is recorded as 264.9%; in test [6], 304.1%. In addition, the figures for the “A280 (%) for second site” value in test [5] (Gamide) and in test [6] were 178.6% and 1714.8%, respectively.

In the case of `[Zn+2]` [Zn(II)], the binding to progastrin result in test [1] was “does not bind”.

As to `[Sb]` [antimony], in test [7], the “high affinity binding to gastrins” value is recorded as “did not show high affinity binding”.

For the molecule `[AsH3]` [arsenic], the “high affinity binding to gastrins” value in test [7] is “did not show high affinity binding”.

Regarding ZGPWLEEEEEAYGWMDFamide [gastrin/Gamide], the “increase of colonic proliferative index” value in test [8] was “no effect”.
